From publication PMC3973950, “Synthesis of 5-arylidine amino-1,3,4-thiadiazol-2-[(N-substituted benzyol)]sulphonamides endowed with potent antioxidants and anticancer activity induces growth inhibition in HEK293, BT474 and NCI-H226 cells” (Medicinal Chemistry Research, 2013)

Columns and labels:
[1] = In vitro cytotoxicity by MTT assay, HEK 293; assay type: cell-based, human; conditions: human, HEK 293 cells, read-out: % cytotoxicity (100 − % cell survival) of HEK 293 cell line
Method: (§1) The cancer cell line cultures of HEK 293 ([…]), BT474 (breast cancer cell line) and NCI-H226 (lung cancer) were obtained from Pasteur Institute of India, Coonoor, India, and were cultured in RPMI-1640 and 10 % heat-[…] New born calf serum with antibiotics [penicillin ([…]), streptomycin (100 μg/mL) and amphotericin B (25 μg/mL)]. The cells were maintained at 37 °C in a humidified atmosphere with 5 % CO2 and were subcultured twice a week.
(§2) The monolayer cell culture (100 μL) was trypsinized, and the cell count was adjusted to […] using medium containing 10 % new born calf serum. To each well of the 96-well microtitre plate, the diluted cell suspension (approximately 10,000 cells) (0.1 mL) was added and kept for 24 h in incubator at 37 °C in 5 % CO2 atmosphere for cell monolayer formation. After 24 h, when a partial monolayer was formed at the bottom of the well, the supernatant was flicked off, the monolayer was washed once, and different drugs, i.e. synthesized compounds (100 μL), were added to the cells in microtitre plates. The plates were then incubated at 37 °C for 3 days in 5 % CO2 atmosphere, and microscopic examination was carried out and observations recorded every 24 h. After 72 h, the sample solution in the wells was flicked off; MTT dye ([…]) was added to each well; plates were gently shaken and incubated for 4 h at 37 °C in 5 % CO2 incubator. The supernatant was removed and propanol (50 μL) was added; the plates were gently shaken to solubilize the formed formazan. The absorbance was measured using a microplate reader at a wavelength of 490 nm (Edmondson et al., [1988]; Prasad et al., [2005]; Chiruvella et al., [2008]; Chang et al., [2007]).

[2] = test system: BT474 (breast cancer cell line); experiment: In vitro cytotoxicity by MTT assay, BT474; assay type: cell-based; conditions: Homo sapiens, 72 h, read-out: % cytotoxicity (100 − % cell survival) of BT474 cell line; for cytotoxicity at 0.005 µM: BT-474, 0.005 μM; for cytotoxicity at 0.015 µM: BT-474, 0.015 μM; for cytotoxicity at 0.045 µM: BT-474, 0.045 μM; for cytotoxicity at 0.13 µM: BT-474, 0.13 μM; for cytotoxicity at 0.41 µM: BT-474, 0.41 μM; for cytotoxicity at 1.23 µM: BT-474, 1.23 μM; for cytotoxicity at 3.7 µM: BT-474, 3.7 μM; for cytotoxicity at 11.11 µM: BT-474, 11.11 μM; for cytotoxicity at 33.33 µM: BT-474, 33.33 μM; for cytotoxicity at 100 µM: BT-474, 100 μM
Method: as §1, §2

[3] = In vitro cytotoxicity by MTT assay, NCI-H226; assay type: cell-based; conditions: human, NCI-H226 lung cancer cells, 0.015 μM, read-out: % Cytotoxicity (100 − % cell survival) of NCI-H226 cell line
Method: as §1, §2

[4] = test system: NCI-H226 (lung cancer cell line); experiment: In vitro cytotoxicity by MTT assay, NCI-H226; assay type: cell-based; conditions: Homo sapiens, 72 h, read-out: % Cytotoxicity (100 − % cell survival) of NCI-H226 cell line; for cytotoxicity at 0.005 µM: NCI-H226, 0.005 μM; for cytotoxicity at 0.045 µM: NCI-H226, 0.045 μM; for cytotoxicity at 0.13 µM: NCI-H226, 0.13 μM; for cytotoxicity at 0.41 µM: NCI-H226, 0.41 μM; for cytotoxicity at 1.23 µM: NCI-H226, 1.23 μM; for cytotoxicity at 3.7 µM: NCI-H226, 3.7 μM; for cytotoxicity at 11.11 µM: NCI-H226, 11.11 μM; for cytotoxicity at 33.33 µM: NCI-H226, 33.33 μM; for cytotoxicity at 100 µM: NCI-H226, 100 μM
Method: as §1, §2

[5] = test system: root meristem cells of Allium cepa; experiment: In vitro antimitotic activity and cytogenetic analysis, Allium cepa meristem root model; assay type: cell-based; conditions: compounds 1 mg/mL, PC (EMS) 2 × 10^−2 M
Method: Small bulbs (1.5–2.0 cm in diameter) of the common onion, A. cepa (2n = 16), were purchased from vendor at a local market. Prior to initiating the test, the outer scales of the bulbs and the dry bottom plate were removed without destroying the root primordia. The roots of A. cepa were grown in distilled water in Erlenmeyer flasks (200 mL capacity) under laboratory conditions (dark 24 °C). For each synthesized compound sample, after reaching a length of 3 cm (±0.5 cm), a series of six bulbs were placed in distilled water (pH 7.3) for 48 h and then onion roots were treated with the synthesized compound at 1 mg/mL concentrations of each tested compound. The test tubes were kept in an incubator at 22 ± 1 °C, and the test samples were changed daily at the same time. Several of the newly formed root tips were then cut from each bulb and examined for any visible morphological abnormalities. The bulbs with satisfactory root lengths (2–2.5 cm) were used in the study, while those with exceptionally long or short roots were discarded (on average 2–3 bulbs). Therefore, individual sets of five bulbs were used for each extract sample.
Distilled water (pH 7.3) was used as a negative control, and EMS (2 × 10^−2 M) used as a positive control mutagen (Fiskesjo, [1993], [1997]). After 24 h of exposure, several root tips were removed from the bulbs, fixed in 3:1 (v/v) ethanol (90 %)/glacial acetic acid (45 %) and stored overnight at 4 °C. The next day, they were placed in 70 % (v/v) aqueous alcohol and refrigerated until used. Allium roots were softened by digesting with HCl and rinsed the roots in water. After removing the water from the third rinse, the roots were covered with the orcein acetate stain. The roots were incubated in the stain for 12 min. During this time, the very tip of the root begins to turn red as the DNA stains the numerous small actively dividing cells at the tip. A root was transferred to the centre of a clean microscope slide, and a drop of water was added. Using a razor blade most of the unstained part of the root was cut off and discarded. The root tip was covered with a cover slip and then carefully pushed down on the cover slide with the wooden end of a dissecting probe. […] The root tip should spread out to a diameter about 0.5–1 cm. Five slides were prepared per bulb.
The following parameters were used for the determination of cytotoxicity and genotoxicity: • (i) the mitotic index (MI) was calculated as the ratio between the number of mitotic cells and the total number of cells scored and expressed as percentage using following formula as per standard procedures. Mitoticindex=Numberofdividingcells/Totalnumberofcells×100 • (ii) Chromatin aberrations (stickiness, breaks and polar deviation) were used as end points for the determination of cytogenetic effects, and micronuclei (MNC) were scored in interphase cells per 1,000 cells (‰ MNC) (Freshney, [2000]). • (iii) The most frequent abnormalities are shown in microphotographs. After 72 h of exposure to the test samples, the root lengths were measured and used as an index of general toxicity. The results for mitotic index and root length are expressed as percentage of the negative and positive controls. Visible morphological modifications, such as changes in root consistency and colour as well as the presence of swelling (c-tumours), hooks or twists in the roots, were also observed.

Compound | cytotoxicity at 72 h, 0.005 µM [1] | cytotoxicity at 72 h, 0.015 µM [1] | cytotoxicity at 72 h, 0.045 µM [1] | cytotoxicity at 72 h, 0.13 µM [1] | cytotoxicity at 72 h, 0.41 µM [1] | cytotoxicity at 72 h, 1.23 µM [1] | cytotoxicity at 72 h, 3.7 µM [1] | cytotoxicity at 72 h, 11.11 µM [1] | cytotoxicity at 72 h, 33.33 µM [1] | cytotoxicity at 72 h, 100 µM [1] | cytotoxicity at 0.005 µM [2] | cytotoxicity at 0.015 µM [2] | cytotoxicity at 0.045 µM [2] | cytotoxicity at 0.13 µM [2] | cytotoxicity at 0.41 µM [2] | cytotoxicity at 1.23 µM [2] | cytotoxicity at 3.7 µM [2] | cytotoxicity at 11.11 µM [2] | cytotoxicity at 33.33 µM [2] | cytotoxicity at 100 µM [2] | further results
Nc1ccc(S(=O)(=O)Nc2nnc(S(=O)(=O)NC(=O)c3ccccc3O)s2)cc1 [Compound 7d] | 18.9% | 19.9% | 20.3% | 22.2% | 24.1% | 25.3% | 26.6% | 27.2% | 29% | 29.6% | 28.5% | 29.3% | 30.6% | 31.9% | 33.1% | 34.4% | 35.7% | 36.1% | 38% | 38.9% | cytotoxicity at 72 h, 0.015 µM [3]: 34.1%; cytotoxicity at 0.005 µM [4]: 33.7%; cytotoxicity at 0.045 µM [4]: 34.6%; cytotoxicity at 0.13 µM [4]: 35.2%; cytotoxicity at 0.41 µM [4]: 35.7%; cytotoxicity at 1.23 µM [4]: 35.4%; cytotoxicity at 3.7 µM [4]: 36%; cytotoxicity at 11.11 µM [4]: 37.9%; cytotoxicity at 33.33 µM [4]: 38.5%; cytotoxicity at 100 µM [4]: 38.9%
Nc1ccc(S(=O)(=O)Nc2nnc(S(=O)(=O)NC(=O)c3ccccc3N)s2)cc1 [Compound 7b] | 37.8% | 39.2% | 40.5% | 44% | 45.3% | 46.5% | 47.8% | 48.2% | 50.7% | 51.9% | 27.4% | 28.1% | 29.5% | 30.2% | 31.4% | 32.2% | 33.3% | 34.6% | 35.5% | 36.6% | cytotoxicity at 72 h, 0.015 µM [3]: 33.6%; cytotoxicity at 0.005 µM [4]: 33.5%; cytotoxicity at 0.045 µM [4]: 35.5%; cytotoxicity at 0.13 µM [4]: 37%; cytotoxicity at 0.41 µM [4]: 37.4%; cytotoxicity at 1.23 µM [4]: 38.8%; cytotoxicity at 3.7 µM [4]: 39.1%; cytotoxicity at 11.11 µM [4]: 40.6%; cytotoxicity at 33.33 µM [4]: 41.1%; cytotoxicity at 100 µM [4]: 42.4%
Nc1ccc(S(=O)(=O)Nc2nnc(S(=O)(=O)NC(=O)c3ccc(Cl)cc3)s2)cc1 [Compound 7g] | 29.1% | 31.2% | 33.3% | 35.1% | 35.9% | 36.5% | 37.2% | 38.1% | 40.3% | 42.9% | 27.3% | 28.4% | 30% | 31.3% | 32.7% | 33.2% | 34.7% | 37.7% | 38.5% | 40.1% | cytotoxicity at 72 h, 0.015 µM [3]: 32.8%; cytotoxicity at 0.005 µM [4]: 30.7%; cytotoxicity at 0.045 µM [4]: 33.6%; cytotoxicity at 0.13 µM [4]: 35.3%; cytotoxicity at 0.41 µM [4]: 35.7%; cytotoxicity at 1.23 µM [4]: 36.1%; cytotoxicity at 3.7 µM [4]: 36.3%; cytotoxicity at 11.11 µM [4]: 37.1%; cytotoxicity at 33.33 µM [4]: 38.7%; cytotoxicity at 100 µM [4]: 39%
CCOS(C)(=O)=O [PC, Ethyl methanesulphonate, reference compound] | – | – | – | – | – | – | – | – | – | – | – | – | – | – | – | – | – | – | – | – | Aberrant cells (%) ± SEM [5]: 43.20 ± 7.10%; MNC (‰) ± SEM (micronuclei per 1,000 cells) [5]: 0.59 ± 0.09 ‰; Polar deviations (%) ± SEM [5]: 12.36 ± 3.36%; Stickiness (%) ± SEM [5]: 36.31 ± 9.84%; MI (%) ± SEM (mitotic index) ([5]; lower MI = higher activity, negative control 6.22): 1.86 ± 0.23%
